Data taken from US12582654B2, “Cyano-substituted pyridine and cyano-substituted pyrimidine compound and preparation method therefor and application thereof” (BEIJING SCITECH-MQ PHARMACEUTICALS LIMITED, priority 2019, dated 2026).

Experiments:
FGFR = details: cited from earlier work
each subtype of FGFR = details: cited from earlier work
Ba/F3 ETV6-FGFR4 cells = biological target: T1, Ba/F3 ETV6-FGFR4 cells (Homo sapiens, UniProt P22455); test: Inhibition of cell proliferation (CCK-8), Ba/F3 ETV6-FGFR4 cells; type: cell-based; details: 72 hours of incubation, read-out: Ba/F3 ETV6-FGFR4 IC50
T1 construct: fused on or other part: N-terminal part of ETV6 (TEL), the oligomerising partner that makes the FGFR4 kinase constitutively active; P41212 (Transcription factor ETV6)
Outline: (§1)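 Ba/F3 cells expressing ETV6-FGFR4 or ETV6-FGFR4-V550L exposed for 72 h to 9 concentrations from 4-fold serial dilution (0.25% DMSO final). Viability by CCK-8, OD 450 nm after 1–2 h at 37 °C, relative to untreated and cell-free blanks; IC50 from curve fitting.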

FGFR4 V550L kinase = FGFR4 V550L kinase (Homo sapiens, UniProt P22455, V550L); test: Inhibition of FGFR4 V550L mutant kinase activity (ULight-labeled PolyGT, EU665/EU615 reading); type: biochemical; details: FGFR4 V550L kinase 1 nM, ATP 10 μM, enzymatic reaction 2 hours
Outline: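 TR-FRET kinase assay: 1 nM FGFR4 V550L, 10 μM ATP, 100 nM ULight-PolyGT substrate, 2 h at room temperature after 5 min compound–enzyme preincubation, 1% DMSO. Compound tested as 11-point 3-fold dilution from 2.5 μM to 0.042 nM final. Signal as EU665/EU615 ratio; IC50 fitted from % inhibition.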

[1] = biological target: T2, Ba/F3 ETV6-FGFR4-V550L cells (Homo sapiens, UniProt P22455, V550L, cells depend on it); test: Inhibition of cell proliferation (CCK-8), Ba/F3 ETV6-FGFR4-V550L cells; type: cell-based; details: 72 hours of incubation, read-out: Ba/F3 ETV6-FGFR4-V550L IC50
T2 construct: fused on or other part: N-terminal part of ETV6 (TEL), the oligomerising partner of the fusion; already named as the first entry; P41212 (Transcription factor ETV6)
Outline: as §1

FGFR4 kinase = FGFR4 kinase (Homo sapiens, UniProt P22455); test: Inhibition of FGFR4 kinase activity (ULight-labeled JAK-1 peptide, EU665/EU615 reading); type: biochemical; details: FGFR4 kinase 3.85 nM, ATP 100 μM, enzymatic reaction 2 hours
Outline: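 TR-FRET kinase assay using 3.85 nM FGFR4, 100 μM ATP and 100 nM ULight-JAK-1 (Tyr1023) peptide; 5 min enzyme–compound preincubation, then 2 h at room temperature. Compounds at 11 3-fold dilutions from 2.5 μM down to 0.042 nM, 1% DMSO. IC50 from EU665/EU615 ratio inhibition curves.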

Sequence of FGFR4 V550L kinase (P22455 22-802 V550L): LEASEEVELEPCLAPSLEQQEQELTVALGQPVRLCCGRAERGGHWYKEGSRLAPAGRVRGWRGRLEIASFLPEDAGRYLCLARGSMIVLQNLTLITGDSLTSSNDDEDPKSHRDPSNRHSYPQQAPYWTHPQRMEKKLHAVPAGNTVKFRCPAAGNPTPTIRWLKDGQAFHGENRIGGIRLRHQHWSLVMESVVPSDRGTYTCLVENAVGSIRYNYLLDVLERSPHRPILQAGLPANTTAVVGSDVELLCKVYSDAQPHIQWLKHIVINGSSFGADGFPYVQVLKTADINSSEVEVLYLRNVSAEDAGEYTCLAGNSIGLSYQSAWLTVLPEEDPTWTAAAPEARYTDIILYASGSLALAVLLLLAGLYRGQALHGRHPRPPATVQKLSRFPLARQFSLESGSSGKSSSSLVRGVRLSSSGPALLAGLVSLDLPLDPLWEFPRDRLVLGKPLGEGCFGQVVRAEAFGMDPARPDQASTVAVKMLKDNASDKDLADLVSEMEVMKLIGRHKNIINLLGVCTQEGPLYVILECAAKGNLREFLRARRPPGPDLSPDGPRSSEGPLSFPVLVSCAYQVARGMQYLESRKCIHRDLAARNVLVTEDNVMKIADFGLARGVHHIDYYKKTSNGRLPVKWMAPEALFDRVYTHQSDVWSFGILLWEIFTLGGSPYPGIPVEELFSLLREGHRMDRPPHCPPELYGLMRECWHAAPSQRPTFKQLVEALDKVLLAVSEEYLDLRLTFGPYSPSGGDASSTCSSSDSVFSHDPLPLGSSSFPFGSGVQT
T1 sequence (P22455 whole entry, change not shown, the tested form may be a part): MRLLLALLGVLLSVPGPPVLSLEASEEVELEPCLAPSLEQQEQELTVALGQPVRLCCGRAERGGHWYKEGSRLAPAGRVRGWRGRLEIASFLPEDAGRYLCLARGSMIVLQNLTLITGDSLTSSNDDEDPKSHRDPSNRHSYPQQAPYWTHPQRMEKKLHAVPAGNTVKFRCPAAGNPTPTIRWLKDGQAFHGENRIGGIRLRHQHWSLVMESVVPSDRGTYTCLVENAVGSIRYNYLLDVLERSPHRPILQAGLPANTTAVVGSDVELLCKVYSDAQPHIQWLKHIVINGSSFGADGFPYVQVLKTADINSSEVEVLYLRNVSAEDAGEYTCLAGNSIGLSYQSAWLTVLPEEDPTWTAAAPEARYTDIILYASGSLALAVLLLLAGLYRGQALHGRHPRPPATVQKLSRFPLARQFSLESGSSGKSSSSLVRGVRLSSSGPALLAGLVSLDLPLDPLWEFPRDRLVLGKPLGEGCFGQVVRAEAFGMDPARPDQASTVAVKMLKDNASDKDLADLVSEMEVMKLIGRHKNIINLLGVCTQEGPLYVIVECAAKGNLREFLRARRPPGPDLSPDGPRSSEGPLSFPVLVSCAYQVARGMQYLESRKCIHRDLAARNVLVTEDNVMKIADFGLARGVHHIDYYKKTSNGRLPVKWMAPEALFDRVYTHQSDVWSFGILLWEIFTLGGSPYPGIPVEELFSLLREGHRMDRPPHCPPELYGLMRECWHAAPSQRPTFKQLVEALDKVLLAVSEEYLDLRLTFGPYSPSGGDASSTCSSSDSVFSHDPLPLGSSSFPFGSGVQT
T2 sequence (P22455 whole entry V550L, the tested form may be a part): as the sequence (P22455 whole entry, change not shown, the tested form may be a part) above, with V550L counted along it
Sequence of FGFR4 kinase (P22455 22-802): as the sequence (P22455 22-802 V550L) above, with L529V counted along it

Structure (SMILES)	GI50 (Ba/F3 ETV6-FGFR4 cells) [nM]	IC50 (FGFR4 V550L kinase) [nM]	GI50 [1] [nM]	IC50 (FGFR4 kinase) [nM]	FGFR inhibitory activity (FGFR)	enzymatic inhibitory activity against each subtype of FGFR (each subtype of FGFR)
CCN(CC)CCCCNc1ncc2cc(-c3cc(OC)cc(OC)c3)c(NC(=O)NC(C)(C)C)nc2n1 [PD173074]					nanomolar inhibitory activity	
C=CC(=O)N1CCN(CCCn2c(=O)c(-c3c(Cl)c(OC)cc(OC)c3Cl)cc3cnc(NC)nc32)CC1 [PRN-1371]						nanomolar levels
C=CC(=O)Nc1cc(N2CCN(CC)CC2)ccc1Nc1ncc(C#N)c(Nc2cc(C(F)(F)F)ccc2OC(C)C)n1 [Example 26, N-(2-((5-cyano-4-((2-isopropoxy-5-(trifluoromethyl)phenyl)amino)pyrimidin-2-yl)amino)-5-(4-ethylpiperazin-1-yl)phenyl) acrylamide]	100 to 1000	100 to 1000	100 to 1000	100 to 1000		
C=CC(=O)Nc1cc(N2CCC(N(C)C3CCC3)CC2)ccc1Nc1ncc(C#N)c(Nc2ccccc2OC(C)C)n1 [Example 62, N-(2-((5-cyano-4-((2-isopropoxyphenyl)amino)pyrimidin-2-yl)amino)-5-(4-(cyclobutyl(methyl)amino)piperidin-1-yl)phenyl) acrylamide]	≤ 10	10 to 50	≤ 10	10 to 50		
C=CC(=O)Nc1cc(N2CCC(N3CCCC3)CC2)ccc1Nc1ncc(C#N)c(Nc2ccccc2OC(C)C)n1 [Example 3, N-(2-((5-cyano-4-((2-isopropoxyphenyl)amino)pyrimidin-2-yl)amino)-5-(4-(pyrrolidin-1-yl)piperidin-1-yl)phenyl) acrylamide]	≤ 10	≤ 10	≤ 10	10 to 50		
C=CC(=O)Nc1cc(N2CCC(N3CCN(C)CC3)CC2)ccc1Nc1ncc(C#N)c(Nc2ccc(F)cc2OC(C)C)n1 [Example 39, N-(2-((5-cyano-4-((4-fluoro-2-isopropoxyphenyl)amino)pyrimidin-2-yl)amino)-5-(4-(4-methylpiperazin-1-yl)piperidin-1-yl)phenyl) acrylamide]	≤ 10	≤ 10	≤ 10	≤ 10		
C=CC(=O)Nc1cc(N2CCC(N3CCN(C)CC3=O)CC2)c(F)cc1Nc1ncc(C#N)c(Nc2ccccc2OC(C)C)n1 [Example 48, N-(2-((5-cyano-4-((2-isopropoxyphenyl)amino)pyrimidin-2-yl)amino)-4-fluoro-5-(4-(4-methyl-2-oxopiperazin-1-yl)piperidin-1-yl)phenyl) acrylamide]	≤ 10	10 to 50	≤ 10	10 to 50		
C=CC(=O)Nc1cc(N2CCN(CC)CC2)ccc1Nc1ncc(C#N)c(Nc2c(C)cccc2OC(C)C)n1 [Example 22, N-(2-((5-cyano-4-((2-isopropoxy-6-methylphenyl)amino)pyrimidin-2-yl)amino)-5-(4-ethylpiperazin-1-yl)phenyl) acrylamide]	100 to 1000	100 to 1000	100 to 1000	100 to 1000		
C=CC(=O)Nc1cc(N2CCC(N3CCN(C)C(=O)C3)CC2)ccc1Nc1ncc(C#N)c(Nc2ccccc2OC(C)C)n1 [Example 43, N-(2-((5-cyano-4-((2-isopropoxyphenyl)amino)pyrimidin-2-yl)amino)-5-(4-(4-methyl-3-oxopiperazin-1-yl)piperidin-1-yl)phenyl) acrylamide]	≤ 10	10 to 50	≤ 10	10 to 50		
C=CC(=O)Nc1cc(N2CCN(C)CC2)c(F)cc1Nc1ncc(C#N)c(Nc2ccccc2OC(C)C)n1 [Example 14, N-(2-((5-cyano-4-((2-isopropoxyphenyl)amino)pyrimidin-2-yl)amino)-4-fluoro-5-(4-methylpiperazin-1-yl)phenyl) acrylamide]	≤ 10	10 to 50	≤ 10	50 to 100		
C=CC(=O)Nc1cc(N2CCN(CC)CC2)ccc1Nc1ncc(C#N)c(Nc2ccc(S(C)(=O)=O)cc2OC(C)C)n1 [Example 35, N-(2-((5-cyano-4-((2-isopropoxy-4-(methylsulfonyl)phenyl)amino)pyrimidin-2-yl)amino)-5-(4-ethylpiperazin-1-yl)phenyl) acrylamide]	10 to 50	10 to 50	10 to 50	10 to 50		
C=CC(=O)Nc1cc(N2CCC(N3CCCC3)CC2)c(F)cc1Nc1ncc(C#N)c(Nc2ccccc2OC(C)C)n1 [Example 17, N-(2-((5-cyano-4-((2-isopropoxyphenyl)amino)pyrimidin-2-yl)amino)-4-fluoro-5-(4-(pyrrolidin-1-yl)piperidin-1-yl)phenyl) acrylamide]	≤ 10	10 to 50	≤ 10	10 to 50		
C=CC(=O)Nc1cc(N2CCC(N3CCN(S(C)(=O)=O)CC3)CC2)ccc1Nc1ncc(C#N)c(Nc2ccccc2OC(C)C)n1 [Example 51, N-(2-((5-cyano-4-((2-isopropoxyphenyl)amino)pyrimidin-2-yl)amino)-5-(4-(4-(methylsulfonyl)piperazin-1-yl)piperidin-1-yl)phenyl) acrylamide]	≤ 10	10 to 50	≤ 10	100 to 1000		
C=CC(=O)Nc1cc(N(C)CCN(C)C)c(OC)cc1Nc1ncc(C#N)c(Nc2ccccc2OC(C)C)n1 [Example 55, N-(2-((5-cyano-4-((2-isopropoxyphenyl)amino)pyrimidin-2-yl)amino)-5-((2-(dimethylamino)ethyl)(methyl)amino)-4-methoxyphenyl) acrylamide]	≤ 10	≤ 10	≤ 10	10 to 50		
C=CC(=O)Nc1cc(N2CCN(CC)CC2)ccc1Nc1ncc(C#N)c(Nc2cc(F)ccc2OC(C)C)n1 [Example 23, N-(2-((5-cyano-4-((5-fluoro-2-isopropoxyphenyl)amino)pyrimidin-2-yl)amino)-5-(4-ethylpiperazin-1-yl)phenyl) acrylamide]	≤ 10	≤ 10	≤ 10	50 to 100		

Now from value to compound, other results behind:

GI50 (Ba/F3 ETV6-FGFR4 cells) [nM]	IC50 (FGFR4 V550L kinase) [nM]	GI50 [1] [nM]	IC50 (FGFR4 kinase) [nM]	Structure (SMILES)	FGFR inhibitory activity (FGFR)	enzymatic inhibitory activity against each subtype of FGFR (each subtype of FGFR)
≤ 10	10 to 50	≤ 10	10 to 50	C=CC(=O)Nc1cc(N2CCC(N3CCC(F)CC3)CC2)ccc1Nc1ncc(C#N)c(Nc2ccccc2OC(C)C)n1 [Example 64, N-(2-((5-cyano-4-((2-isopropoxyphenyl)amino)pyrimidin-2-yl)amino)-5-(4-fluoro-[1,4-bipiperidin]-1‘- yl)phenyl) acrylamide]		
≤ 10	≤ 10	≤ 10	≤ 10	C=CC(=O)Nc1cc(N2CCC(N(C)CCCO)CC2)ccc1Nc1ncc(C#N)c(Nc2ccccc2OC(C)C)n1 [Example 68, N-(2-((5-cyano-4-((2-isopropoxyphenyl)amino)pyrimidin-2-yl)amino)-5-(4-((3-hydroxypropyl) (methyl)amino)piperidin-1-yl)phenyl) acrylamide]		
≤ 10	≤ 10	≤ 10	≤ 10	C=CC(=O)Nc1cc(N2CCC(N3CCN(C)CC3)CC2)ccc1Nc1ncc(C#N)c(Nc2ccccc2SC(C)C)n1 [Example 81]		
≤ 10	≤ 10	10 to 50	≤ 10	C=CC(=O)Nc1cc(N2CCC(N(C)CCCSC)CC2)ccc1Nc1ncc(C#N)c(Nc2ccccc2OC(C)C)n1 [Example 74]		
≤ 10	10 to 50	≤ 10	10 to 50	C=CC(=O)Nc1cc(N2CCC(N3CCN(C)C(=O)C3)CC2)c(F)cc1Nc1ncc(C#N)c(Nc2ccccc2OC(C)C)n1 [Example 44, N-(2-((5-cyano-4-((2-isopropoxyphenyl)amino)pyrimidin-2-yl)amino)-4-fluoro-5-(4-(4-methyl-3-oxopiperazin-1-yl)piperidin-1-yl)phenyl) acrylamide]		
≤ 10	10 to 50	≤ 10	10 to 50	C=CC(=O)Nc1cc(N2CCC(N3CCN(C)CC3=O)CC2)ccc1Nc1ncc(C#N)c(Nc2ccc(F)cc2OC(C)C)n1 [Example 47, N-(2-((5-cyano-4-((4-fluoro-2-isopropoxyphenyl)amino)pyrimidin-2-yl)amino)-5-(4-(4-methyl-2-oxopiperazin-1-yl)piperidin-1-yl)phenyl) acrylamide]		
≤ 10	≤ 10	≤ 10	50 to 100	C=CC(=O)Nc1cc(N2CCC(N3CCN(C)CC3)CC2)c(OC)cc1Nc1ncc(C#N)c(Nc2ccccc2OC(C)C)n1 [Example 53, N-(2-((5-cyano-4-((2-isopropoxyphenyl)amino)pyrimidin-2-yl)amino)-4-methoxy-5-(4-(4-methylpiperazin-1-yl)piperidin-1-yl)phenyl) acrylamide]		
